Tests used:
[1] = tested on: patients with cancer-related psychiatric and existential distress; test: Persisting Effects Questionnaire at second long-term follow-up; format: in vivo, human; conditions: second LTFU (4.5 years, n=14)
Description: (§1) 29 participants were randomly assigned to one of two groups: psilocybin (0.3 mg/kg) on the first medication session followed by niacin (250 mg) on the second session (i.e. psilocybin-first group), or niacin (250 mg) on the first medication session followed by psilocybin (0.3 mg/kg) on the second session (i.e. niacin-first group). Psilocybin and niacin were administered in identically appearing gelatin capsules.
(§2) Participants received three 2-hour preparatory psychotherapy sessions in order to review the purpose and intention of participation in the study, treatment goals, and structure of the treatment sessions. Medications were administered in 8-hour treatment sessions which included a discussion of the participant's subjective experience with the treatment team to consolidate the memory of the experience and to begin the process of post-integrative psychotherapy. Participants also received three 2-hour post-medication integration sessions (repeated after the second dosing session) to further consolidate the memory of the experience and to continue the process of psychological integration. All psychotherapy treatment sessions were delivered by a dyadic therapy team trained in a blend of psychotherapies with an evidence base to support their use in cancer patients (drawing upon principles of palliative care therapy, existential psychotherapy, cognitive-behavioural therapy, psychoanalysis therapy, and transpersonal psychology) and were taught about the safety and clinical pharmacology of psilocybin. Each therapy dyad underwent six confidential one-to-one sessions to build their alliance and exchange ideas about psychedelic therapy. The trial employed a crossover design at seven weeks following the first drug administration, with an outcome assessment at 6.5 months (26 weeks) following the second drug administration (i.e. after the crossover).
Two long-term follow ups (LTFUs) were carried out to assess the continued effect of psilocybin. Of the original 29 participants, all 16 participants who were not deceased at the time of LTFU were contacted (the remaining 13 participants were deceased). Of the 16 participants who were contacted, 15 agreed to participate in the LTFU and completed measures through a secure online portal. One participant died (from cancer-related complications) after completing the first LTFU and prior to the second LTFU, leaving us with 14 participants at the second LTFU. […]
Persisting effects of psilocybin were assessed using the Persisting Effects Questionnaire (Griffiths et al., 2006, 2008) assesses self-rated changes in one's attitude, mood, behavior, and experience of spirituality. […]

[2] = tested on: patients with cancer-related psychiatric and existential distress; test: Hopelessness Assessment in Illness (HAI), long-term follow-up; format: in vivo, human; conditions: for Hopelessness: single 0.3 mg/kg dose with psychotherapy, baseline 5.75, p < 0.001 vs baseline
Description: (§3) The present example assesses the long-term effects of a single dose of psilocybin (0.3 mg/kg) in conjunction with psychotherapy in patients with cancer-related psychiatric and existential distress.
as §1, §2
Two long-term follow ups (LTFUs) were carried out to assess the continued effect of psilocybin. Of the original 29 participants, all 16 participants who were not deceased at the time of LTFU were contacted (the remaining 13 participants were deceased). […]
(§4) Cancer-related existential distress (demoralization, hopelessness, attitudes and effects associated with disease progression and death) was assessed using the following methods: • The Death Anxiety Scale (DAS) (Templer, 1970)—a 15-item measure that has been used most frequently to assess death anxiety. Items are scored “true” and “false” and then scored as one and zero, respectively. […]

[3] = tested on: patients with cancer-related psychiatric and existential distress; test: Demoralization Scale (DS), long-term follow-up; format: in vivo, human; conditions: single 0.3 mg/kg dose with psychotherapy, baseline 31.88, p < 0.001 vs baseline
Description: as §3, §1
as §2, with “Each therapy dyad underwent six confidential one-to-one sessions to build their alliance and exchange ideas about psychedelic therapy. The trial employed a crossover design at seven weeks following the first drug administration, with an outcome assessment at 6.5 months (26 weeks) following the second drug administration (i.e. after the crossover).” left out
as §4

[4] = tested on: patients with cancer-related psychiatric and existential distress; test: Spielberger State-Trait Anxiety Inventory (STAI), long-term follow-up; format: in vivo, human; conditions: single 0.3 mg/kg dose with psychotherapy; for STAI State Anxiety: baseline 43.94; for STAI Trait Anxiety: baseline 47.81
Description: as §3, §1, §2
Two long-term follow ups (LTFUs) were carried out to assess the continued effect of psilocybin. Of the original 29 participants, all 16 participants who were not deceased at the time of LTFU were contacted (the remaining 13 participants were deceased). Of the 16 participants who were contacted, 15 agreed to participate in the LTFU and completed measures through a secure online portal. One participant died (from cancer-related complications) after completing the first LTFU and prior to the second LTFU, leaving us with 14 participants at the second LTFU. The first and second LTFUs occurred on average 3.2 years (range 2.3-4.5 years) and 4.5 years (range 3.5-5.5 years) following the participants' psilocybin dosing date, respectively.
Primary outcomes (anxiety and depression) were measured according to the following methods: • Hospital Anxiety and Depression Scale (HADS) (Zigmond and Snaith, 1983)—this is widely used in hospital settings to screen for the severity of anxiety and depression. It contains 14 questions rated on a four-point scale (total score (HAD-T) ranges from 0-56). Subscale scores can be calculated for depression (HADS-D) and anxiety (HADS-A). […] The HADS has shown good reliability (Cronbach's a ranging from 0.80-0.93) and has been well validated (Herrmann, 1997). • Beck Depression Inventory-II (BDI-II) (Beck et al., 1988)—a widely used self-report screening measure for depression. […]

[5] = tested on: patients with cancer-related psychiatric and existential distress; test: Lasting negative or adverse effects reported during long-term follow-up; format: in vivo, human; conditions: LTFU period; 13 of 14 participants provided information
Description: as §1
Participants received three 2-hour preparatory psychotherapy sessions in order to review the purpose and intention of participation in the study, treatment goals, and structure of the treatment sessions. Medications were administered in 8-hour treatment sessions which included a discussion of the participant's subjective experience with the treatment team to consolidate the memory of the experience and to begin the process of post-integrative psychotherapy. Participants also received three 2-hour post-medication integration sessions (repeated after the second dosing session) to further consolidate the memory of the experience and to continue the process of psychological integration. […]

[6] = tested on: patients with life-threatening cancer; conditions: 6-month follow up; cited from earlier work
[7] = mean score at 6.5-8 months, p < 0.001 vs baseline

## CN(C)CCc1c[nH]c2cccc(OP(=O)(O)O)c12 [psilocybin, [3-(2-dimethylaminoethyl)-1H-indol-4-yl] dihydrogen phosphate]
[1]
  participants appraising the psilocybin session as increasing life satisfaction or wellbeing: 86%
  participants rating the psilocybin experience the single or top-five most personally meaningful experience(s) of their lives: Seventy-one
  participants rating the psilocybin experience the single or top-five most spiritually significant experience(s) of their lives: ninety-six
  volunteers reporting moderate, strong or extreme positive behavioral change attributed to the psilocybin experience: 100%
[2]; Spearman, second LTFU subtracted from two-weeks post-psilocybin dose scores, p<0.01
  correlation (r) of length of time between psilocybin session and follow-up with HAI hopelessness change score: 0.69
[2]; mean score at 3.2 years
  Hopelessness: 2.29
[2]; mean score at 4.5 years
  Hopelessness: 1.65
[2]; mean score at 6.5-8 months
  Hopelessness: 1.65
[3]; mean score at 3.2 years
  Demoralization: 13.29
[3]; mean score at 4.5 years
  Demoralization: 14.32
[3]; mean score at 6.5-8 months
  Demoralization: 16.84
[4]; mean score at 3.2 years, p < 0.01 vs baseline
  STAI State Anxiety: 33.00
[4]; mean score at 4.5 years, p < 0.05 vs baseline
  STAI State Anxiety: 34.41
[4]; mean score at 4.5 years, p < 0.01 vs baseline
  STAI Trait Anxiety: 35.78
[4]; [7]
  STAI State Anxiety: 29.84
  STAI Trait Anxiety: 28.23
[5]
  lasting negative or adverse effects from the psilocybin-assisted therapy experiences: None of the participants reported lasting negative or adverse effects
[6]
  participants continuing to show decreases in depressed mood and anxiety: about 80%

From patent US20220151993A1, “TREATMENT OF ANXIETY AND DEPRESSION” (NEW YORK UNIVERSITY, priority 2020, published 2022)
